The record followed here is US9975878B2, “Substituted triazine BMI-1 inhibitors” (PTC Therapeutics, Inc., priority 2013, dated 2018).

This experiment has as its system Bmi-1 protein. In words: Sandwich ELISA Assay: Bmi-1 protein level in HT-1080 cells treated with test compounds. The format is cell-based. Put shortly:
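HT-1080 cells exposed to compounds (final DMSO 0.5%) for 40-48 h at 37° C, 5% CO2, then lysed. Bmi-1 quantified by sandwich ELISA (mouse anti-Bmi-1 capture, rabbit anti-Bmi-1 detection, HRP anti-rabbit, TMB), read at OD450 with OD570 reference, against recombinant GST-Bmi-1 standard curve (0-8000 pg/mL).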
Turning to `COc1ccc(Nc2nc(N)nc(-n3c(C)nc4c(F)cccc43)n2)cc1` [Cpd 179, 6-(4-fluoro-2-methyl-1H-benzimidazol-1-yl)-N-(4-methoxyphenyl)-1,3,5-triazine-2,4-diamine], the EC50 lay in the range of 1 to 10 nM.

In the case of `Cc1ccc(Nc2nc(N)nc(-n3c(C)nc4c(F)cccc43)n2)cc1` [Cpd 180, 6-(4-fluoro-2-methyl-1H-benzimidazol-1-yl)-N-(4-methylphenyl)-1,3,5-triazine-2,4-diamine], the EC50 fell in the range of 1 to 10 nM.

`Cc1nc2c(F)cccc2n1-c1nc(N)nc(Nc2ccc(Cl)cc2)n1` [Cpd 181, N-(4-chlorophenyl)-6-(4-fluoro-2-methyl-1H-benzimidazol-1-yl)-1,3,5-triazine-2,4-diamine] returned an EC50 of 100 to 3000 nM. The value for `COc1ccc(Nc2nc(N)nc(-n3c(C4CC4)nc4c(F)cccc43)n2)cc1` [Cpd 182, 6-(2-cyclopropyl-4-fluoro-1H-benzimidazol-1-yl)-N-(4-methoxyphenyl)-1,3,5-triazine-2,4-diamine] was 1 to 10 nM; that for `Cc1ccc(Nc2nc(N)nc(-n3c(C4CC4)nc4c(F)cccc43)n2)cc1` [Cpd 183, 6-(2-cyclopropyl-4-fluoro-1H-benzimidazol-1-yl)-N-(4-methylphenyl)-1,3,5-triazine-2,4-diamine] was 10 to 100 nM.

Take `Nc1nc(Nc2ccc(Cl)cc2)nc(-n2c(C3CC3)nc3c(F)cccc32)n1` [Cpd 184, N-(4-chlorophenyl)-6-(2-cyclopropyl-4-fluoro-1H-benzimidazol-1-yl)-1,3,5-triazine-2,4-diamine]: the EC50 is 10 to 100 nM. The value for `COc1ccc(Nc2nc(N)nc(-n3c(C)nc4c(F)cc(F)cc43)n2)cc1` [Cpd 185, 6-(4,6-difluoro-2-methyl-1H-benzimidazol-1-yl)-N-(4-methoxyphenyl)-1,3,5-triazine-2,4-diamine] was 1 to 10 nM.

As to `Cc1ccc(Nc2nc(N)nc(-n3c(C)nc4c(F)cc(F)cc43)n2)cc1` [Cpd 186, 6-(4,6-difluoro-2-methyl-1H-benzimidazol-1-yl)-N-(4-methylphenyl)-1,3,5-triazine-2,4-diamine], the EC50 fell in the range of 1 to 10 nM. The value for `Cc1nc2c(F)cc(F)cc2n1-c1nc(N)nc(Nc2ccc(Cl)cc2)n1` [Cpd 187, N-(4-chlorophenyl)-6-(4,6-difluoro-2-methyl-1H-benzimidazol-1-yl)-1,3,5-triazine-2,4-diamine] was 100 to 3000 nM; that for `CCc1nc2c(F)cc(F)cc2n1-c1nc(N)nc(Nc2ccc(OC)cc2)n1` [Cpd 188, 6-(2-ethyl-4,6-difluoro-1H-benzimidazol-1-yl)-N-(4-methoxyphenyl)-1,3,5-triazine-2,4-diamine] was 1 to 10 nM; that for `CCc1nc2c(F)cc(F)cc2n1-c1nc(N)nc(Nc2ccc(C)cc2)n1` [Cpd 189, 6-(2-ethyl-4,6-difluoro-1H-benzimidazol-1-yl)-N-(4-methylphenyl)-1,3,5-triazine-2,4-diamine] was 10 to 100 nM.

Compound `CCc1nc2c(F)cc(F)cc2n1-c1nc(N)nc(Nc2ccc(Cl)cc2)n1` [Cpd 190, N-(4-chlorophenyl)-6-(2-ethyl-4,6-difluoro-1H-benzimidazol-1-yl)-1,3,5-triazine-2,4-diamine] returned an EC50 of 10 to 100 nM. The result for `COc1ccc(Nc2nc(N)nc(-n3c(C4CC4)nc4cc(F)ccc43)n2)cc1` [Cpd 191, 6-(2-cyclopropyl-5-fluoro-1H-benzimidazol-1-yl)-N-(4-methoxyphenyl)-1,3,5-triazine-2,4-diamine] reads 10 to 100 nM. The result for `Cc1ccc(Nc2nc(N)nc(-n3c(C4CC4)nc4cc(F)ccc43)n2)cc1` [Cpd 192, 6-(2-cyclopropyl-5-fluoro-1H-benzimidazol-1-yl)-N-(4-methylphenyl)-1,3,5-triazine-2,4-diamine] reads 1 to 10 nM. The value for `Nc1nc(Nc2ccc(Cl)cc2)nc(-n2c(C3CC3)nc3cc(F)ccc32)n1` [Cpd 193, N-(4-chlorophenyl)-6-(2-cyclopropyl-5-fluoro-1H-benzimidazol-1-yl)-1,3,5-triazine-2,4-diamine] was 100 to 3000 nM.
